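Growth conditions: 96-well plates. Treatment: test compound, 48 hours, 5 concentrations. Analysis: linear interpolation between bracketing concentrations; unreached endpoints set to highest concentration. Definition used: TGI = concentration required for complete inhibition of growth.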 A value given as a limit tells only on which side of the number the result lay.

One experiment relates to OVCAR-4 ovarian. The experiment is described as follows: DTP human tumour cell line panel, 48 h.
Broadly, the TGI is the concentration at which net growth stops. High values mean lower sensitivity of the cells, low ones greater sensitivity of the cells. `O=[N+]([O-])C1C2C=CC(C2)[C@H]1c1ccco1` (stereo not given in full) came in with a TGI of more than 100 µM.

Take `Cc1c(/C=N/NC(=O)c2cc(Br)cc(Br)c2O)c(=O)n(-c2ccccc2)n1C`: the TGI is more than 100 µM.

Regarding `CCOC(=O)c1nc2ccc(Cl)cc2c2c1Cc1ccccc1-2`, the TGI was more than 100 µM.

`CCN(CC)CSc1nc2ccccc2s1` came in with a total growth inhibition concentration (TGI) of more than 100 µM.

A further experiment concerns HOP-18 NSCLC. Put plainly: DTP human tumour cell line panel, 48 h.
`O=C1C(Br)=CC2(C=C1Br)CCNC1=C2C(=O)c2ccccc2C1=O` returned a TGI of more than 100 µM.

As to `CCOC(=O)c1nc2ccc(Cl)cc2c2c1Cc1ccccc1-2`, the concentration for total growth inhibition (TGI) is more than 100 µM.

A further experiment deals with SF-295 CNS. Put plainly: DTP human tumour cell line panel, 48 h.
As to `O=[N+]([O-])C1C2C=CC(C2)[C@H]1c1ccco1` (stereo not given in full), the TGI is more than 100 µM.

`Cc1c(/C=N/NC(=O)c2cc(Br)cc(Br)c2O)c(=O)n(-c2ccccc2)n1C` displayed a total growth inhibition concentration (TGI) of more than 100 µM.

Molecule `O=C1C(Br)=CC2(C=C1Br)CCNC1=C2C(=O)c2ccccc2C1=O` had a concentration for total growth inhibition (TGI) of 33.2 µM.

With `CCOC(=O)c1nc2ccc(Cl)cc2c2c1Cc1ccccc1-2`, the concentration for total growth inhibition (TGI) is more than 100 µM.

A further experiment relates to UACC-62 melanoma. Put plainly: DTP human tumour cell line panel, 48 h.
Regarding `O=[N+]([O-])C1C2C=CC(C2)[C@H]1c1ccco1` (stereo not given in full), the total growth inhibition concentration (TGI) was more than 100 µM.

`Cc1c(/C=N/NC(=O)c2cc(Br)cc(Br)c2O)c(=O)n(-c2ccccc2)n1C`: the TGI came to 41.7 µM.

The molecule `O=C1C(Br)=CC2(C=C1Br)CCNC1=C2C(=O)c2ccccc2C1=O` gave a TGI of 29.6 µM.

`CCOC(=O)c1nc2ccc(Cl)cc2c2c1Cc1ccccc1-2`: the TGI is more than 100 µM.

`CCN(CC)CSc1nc2ccccc2s1` displayed a concentration for total growth inhibition (TGI) of more than 100 µM.

The subject of another experiment is RPMI-8226 leukemia. Put plainly: DTP human tumour cell line panel, 48 h.
For the molecule `Cc1c(/C=N/NC(=O)c2cc(Br)cc(Br)c2O)c(=O)n(-c2ccccc2)n1C`, the concentration for total growth inhibition (TGI) is more than 100 µM.

In turn, `O=C1C(Br)=CC2(C=C1Br)CCNC1=C2C(=O)c2ccccc2C1=O` showed a concentration for total growth inhibition (TGI) of 41 µM.

With `CCOC(=O)c1nc2ccc(Cl)cc2c2c1Cc1ccccc1-2`, the TGI was more than 100 µM.

The molecule `CCN(CC)CSc1nc2ccccc2s1` returned a TGI of more than 100 µM.

The next experiment has as its system NCI-H522 lung. Put plainly: DTP human tumour cell line panel, 48 h.
`O=[N+]([O-])C1C2C=CC(C2)[C@H]1c1ccco1` (stereo not given in full) displayed a TGI of more than 100 µM.

In the case of `Cc1c(/C=N/NC(=O)c2cc(Br)cc(Br)c2O)c(=O)n(-c2ccccc2)n1C`, the total growth inhibition concentration (TGI) was more than 100 µM.

The molecule `O=C1C(Br)=CC2(C=C1Br)CCNC1=C2C(=O)c2ccccc2C1=O` showed a TGI of 14.4 µM.

Turning to `CCOC(=O)c1nc2ccc(Cl)cc2c2c1Cc1ccccc1-2`, the TGI was more than 100 µM.

`CCN(CC)CSc1nc2ccccc2s1` yielded a TGI of more than 100 µM.

Another experiment concerns OVCAR-8 ovarian. Put plainly: DTP human tumour cell line panel, 48 h.
The molecule `O=[N+]([O-])C1C2C=CC(C2)[C@H]1c1ccco1` (stereo not given in full) gave a TGI of more than 100 µM.

`Cc1c(/C=N/NC(=O)c2cc(Br)cc(Br)c2O)c(=O)n(-c2ccccc2)n1C` came in with a TGI of more than 100 µM.

Regarding `O=C1C(Br)=CC2(C=C1Br)CCNC1=C2C(=O)c2ccccc2C1=O`, the TGI is 98 µM.

As for `CCOC(=O)c1nc2ccc(Cl)cc2c2c1Cc1ccccc1-2`, the TGI is more than 100 µM.

With `CCN(CC)CSc1nc2ccccc2s1`, the TGI is more than 100 µM.

For the next experiment, the system named is HOP-62 NSCLC. The experiment is described as follows: DTP human tumour cell line panel, 48 h.
As to `O=[N+]([O-])C1C2C=CC(C2)[C@H]1c1ccco1` (stereo not given in full), the concentration for total growth inhibition (TGI) was more than 100 µM.

In the case of `Cc1c(/C=N/NC(=O)c2cc(Br)cc(Br)c2O)c(=O)n(-c2ccccc2)n1C`, the TGI is more than 100 µM.

On to `O=C1C(Br)=CC2(C=C1Br)CCNC1=C2C(=O)c2ccccc2C1=O`, for which the TGI was determined as 30.7 µM. That is a double-digit micromolar value.

On to `CCOC(=O)c1nc2ccc(Cl)cc2c2c1Cc1ccccc1-2`, for which the concentration for total growth inhibition (TGI) was more than 100 µM.

The subject of another experiment is DMS 114 small cell lung. Put plainly: DTP human tumour cell line panel, 48 h.
In turn, `O=[N+]([O-])C1C2C=CC(C2)[C@H]1c1ccco1` (stereo not given in full) had a total growth inhibition concentration (TGI) of more than 100 µM.

With `Cc1c(/C=N/NC(=O)c2cc(Br)cc(Br)c2O)c(=O)n(-c2ccccc2)n1C`, the TGI was 88.8 µM.

In the case of `O=C1C(Br)=CC2(C=C1Br)CCNC1=C2C(=O)c2ccccc2C1=O`, the concentration for total growth inhibition (TGI) came out at 22.8 µM.

In turn, `CCN(CC)CSc1nc2ccccc2s1` displayed a TGI of more than 100 µM.

In another experiment the test system is U251 CNS. Put plainly: DTP human tumour cell line panel, 48 h.
Turning to `O=[N+]([O-])C1C2C=CC(C2)[C@H]1c1ccco1` (stereo not given in full), the TGI is more than 100 µM.

The molecule `Cc1c(/C=N/NC(=O)c2cc(Br)cc(Br)c2O)c(=O)n(-c2ccccc2)n1C` had a TGI of more than 100 µM.

For the molecule `CCOC(=O)c1nc2ccc(Cl)cc2c2c1Cc1ccccc1-2`, the concentration for total growth inhibition (TGI) is more than 100 µM.

The subject of another experiment is KM20L2 colon. Put plainly: DTP human tumour cell line panel, 48 h.
With `O=[N+]([O-])C1C2C=CC(C2)[C@H]1c1ccco1` (stereo not given in full), the TGI was more than 100 µM.

Turning to `Cc1c(/C=N/NC(=O)c2cc(Br)cc(Br)c2O)c(=O)n(-c2ccccc2)n1C`, the total growth inhibition concentration (TGI) was more than 100 µM.

On to `O=C1C(Br)=CC2(C=C1Br)CCNC1=C2C(=O)c2ccccc2C1=O`, for which the TGI was determined as 91.8 µM.

For the molecule `CCOC(=O)c1nc2ccc(Cl)cc2c2c1Cc1ccccc1-2`, the total growth inhibition concentration (TGI) was more than 100 µM.

Another experiment has as its system 786-0 renal. Put plainly: DTP human tumour cell line panel, 48 h.
For the molecule `O=[N+]([O-])C1C2C=CC(C2)[C@H]1c1ccco1` (stereo not given in full), the total growth inhibition concentration (TGI) is more than 100 µM.

As to `Cc1c(/C=N/NC(=O)c2cc(Br)cc(Br)c2O)c(=O)n(-c2ccccc2)n1C`, the TGI is more than 100 µM.

`O=C1C(Br)=CC2(C=C1Br)CCNC1=C2C(=O)c2ccccc2C1=O`: the TGI came to 29.5 µM.

In turn, `CCOC(=O)c1nc2ccc(Cl)cc2c2c1Cc1ccccc1-2` displayed a concentration for total growth inhibition (TGI) of more than 100 µM.

A further experiment has as its system DMS 273 small cell lung. The experiment is described as follows: DTP human tumour cell line panel, 48 h.
`O=[N+]([O-])C1C2C=CC(C2)[C@H]1c1ccco1` (stereo not given in full): the TGI is more than 100 µM.

On to `Cc1c(/C=N/NC(=O)c2cc(Br)cc(Br)c2O)c(=O)n(-c2ccccc2)n1C`, for which the TGI was more than 100 µM.

On to `CCOC(=O)c1nc2ccc(Cl)cc2c2c1Cc1ccccc1-2`, for which the concentration for total growth inhibition (TGI) is more than 100 µM.

For `CCN(CC)CSc1nc2ccccc2s1`, the TGI is more than 100 µM.

A further experiment has as its system SNB-19 CNS. Put plainly: DTP human tumour cell line panel, 48 h.
Molecule `O=[N+]([O-])C1C2C=CC(C2)[C@H]1c1ccco1` (stereo not given in full) yielded a TGI of more than 100 µM.

`Cc1c(/C=N/NC(=O)c2cc(Br)cc(Br)c2O)c(=O)n(-c2ccccc2)n1C` showed a TGI of more than 100 µM.

As for `CCOC(=O)c1nc2ccc(Cl)cc2c2c1Cc1ccccc1-2`, the concentration for total growth inhibition (TGI) was more than 100 µM.

For a further experiment, the system named is MALME-3M melanoma. Put plainly: DTP human tumour cell line panel, 48 h.
`O=[N+]([O-])C1C2C=CC(C2)[C@H]1c1ccco1` (stereo not given in full) displayed a TGI of more than 100 µM.

`Cc1c(/C=N/NC(=O)c2cc(Br)cc(Br)c2O)c(=O)n(-c2ccccc2)n1C` registered a total growth inhibition concentration (TGI) of more than 100 µM.

Turning to `O=C1C(Br)=CC2(C=C1Br)CCNC1=C2C(=O)c2ccccc2C1=O`, the TGI is 33.8 µM.

A further experiment relates to LOX IMVI melanoma. Put plainly: DTP human tumour cell line panel, 48 h.
`O=[N+]([O-])C1C2C=CC(C2)[C@H]1c1ccco1` (stereo not given in full) registered a TGI of more than 100 µM.

For the molecule `Cc1c(/C=N/NC(=O)c2cc(Br)cc(Br)c2O)c(=O)n(-c2ccccc2)n1C`, the TGI is more than 100 µM.

The values above are taken from PubChem BioAssay (NCI).
